Reference: patent publication US11530233B2, “Beta-nicotinate ester nucleotides and processes for preparing same” (Cornell University, priority 2017, dated 2022)

Key:
Neuro2a cells = experiment: Intracellular NAD+ levels in Neuro2a cells after 8 h incubation with NaMN or NR; type: cell-based; settings: 1 mM, FIG. 4
Protocol: (§1) The ability of nicotinic acid mononucleotide, NaMN, to serve as an NAD^+ enhancing agent in mammalian cell lines, Neuro2a and HEK293 cells was examined after an 8 h incubation. NaMN was added to cell growth media at a concentration of 1 mM. All cell treatments were done in duplicate. Nicotinamide riboside (NR) at 1 mM concentration was performed as a positive control. Untreated cells served as negative controls. Cells were treated for the allotted time then harvested by trysin detachment and pelleting. Cells were counted by haemocytometer and then lysed by treatment with 100 μL perchloric acid (7%). Lysates were then neutralized by treatment with NaOH and K2PO4 solutions. NAD^+ concentrations were determined by a daphorase-based assay. NAD^+ standards were also run to establish a standard curve. The results are graphically depicted in FIG. 4.

HEK293 cells = experiment: Intracellular NAD+ levels in HEK293 cells after 8 h incubation with NaMN or NR; type: cell-based, human; settings: 1 mM, HEK293, FIG. 4
Protocol: as §1

HEK-293 cells = experiment: NAD+ concentration in HEK-293 cells after treatment with nicotinic acid ester mononucleotides (NAD+ cycling assay); type: cell-based, human; settings: HEK293, 24 hr incubation
Protocol: L. et al., Arch. Biochem. Biophys., 175: 627-634 (1976)). The cells were washed with PBS, counted by haemocytometry and pelleted. The cells were then treated with 7% perchloric acid, and then neutralized with 1 M NaOH and 500 mM potassium phosphate pH 8.5. NAD^+ contents were then measured on a plate reader using diaphorase and lactate dehydrogenase using Resazurin as a dye that is reduced to rezarufin (emission 560 nm). NAD^+ levels were quantitated using a standard curve using known NAD^+ concentrations. NAD^+ concentrations are determined to nmol NAD^+/10^6 cells. All values in Table 1 are listed as compared to control.

## NC(=O)c1ccc[n+]([C@@H]2O[C@H](CO)[C@@H](O)[C@H]2O)c1 [NR, Nicotinamide riboside]
Neuro2a cells
  intracellular NAD^+ content versus untreated cells: increased NAD^+ contents in cells
HEK293 cells
  intracellular NAD^+ content versus untreated cells: increased NAD^+ contents in cells

## O=C(O)c1ccc[n+]([C@@H]2O[C@H](COP(=O)(O)O)[C@@H](O)[C@H]2O)c1 [NaMN, nicotinic acid mononucleotide]
Neuro2a cells
  intracellular NAD^+ content versus untreated cells: No intracellular increase in NAD^+
HEK293 cells
  intracellular NAD^+ content versus untreated cells: No intracellular increase in NAD^+

## CCCCOC(=O)c1ccc[n+]([C@@H]2O[C@H](COP(=O)([O-])O)[C@H](O)[C@@H]2O)c1 [compound 5b, ((2R,3R,4S,5R)-3,4-dihydroxy-5-(3-(butoxycarbonyl)pyridin-1-ium-1-yl)tetrahydrofuran-2-yl)methyl hydrogen phosphate]
HEK-293 cells; 25 μM
  NAD^+ Level (% versus control): 104 ± 29 % versus control
HEK-293 cells; 100 μM
  NAD^+ Level (% versus control): 165 ± 31 % versus control
HEK-293 cells; 500 μM
  NAD^+ Level (% versus control): 103 ± 32 % versus control

## CCCCCOC(=O)c1ccc[n+]([C@@H]2O[C@H](COP(=O)([O-])O)[C@H](O)[C@@H]2O)c1 [compound 5c, ((2R,3R,4S,5R)-3,4-dihydroxy-5-(3-(pentyloxycarbonyl)pyridin-1-ium-1-yl)tetrahydrofuran-2-yl)methyl hydrogen phosphate]
HEK-293 cells; 25 μM
  NAD^+ Level (% versus control): 80 ± 21 % versus control
HEK-293 cells; 100 μM
  NAD^+ Level (% versus control): 105 ± 26 % versus control
HEK-293 cells; 200 μM
  NAD^+ Level (% versus control): 171 ± 18 % versus control
HEK-293 cells; 500 μM
  NAD^+ Level (% versus control): 124 ± 27 % versus control

## CCCCCCOC(=O)c1ccc[n+]([C@@H]2O[C@H](COP(=O)([O-])O)[C@H](O)[C@@H]2O)c1 [compound 5d, ((2R,3R,4S,5R)-3,4-dihydroxy-5-(3-(hexyloxycarbonyl)pyridin-1-ium-1-yl)tetrahydrofuran-2-yl)methyl hydrogen phosphate]
HEK-293 cells; 25 μM
  NAD^+ Level (% versus control): 136 ± 26 % versus control
HEK-293 cells; 100 μM
  NAD^+ Level (% versus control): 162 ± 15 % versus control
HEK-293 cells; 500 μM
  NAD^+ Level (% versus control): 146 ± 48 % versus control

## CCCCCCCOC(=O)c1ccc[n+]([C@@H]2O[C@H](COP(=O)([O-])O)[C@H](O)[C@@H]2O)c1 [compound 5e, ((2R,3R,4S,5R)-3,4-dihydroxy-5-(3-(heptyloxycarbonyl)pyridin-1-ium-1-yl)tetrahydrofuran-2-yl)methyl hydrogen phosphate]
HEK-293 cells; 25 μM
  NAD^+ Level (% versus control): 152 ± 19 % versus control
HEK-293 cells; 100 μM
  NAD^+ Level (% versus control): 150 ± 11 % versus control
HEK-293 cells; 500 μM
  NAD^+ Level (% versus control): 123 ± 21 % versus control

## CCCCCCCCOC(=O)c1ccc[n+]([C@@H]2O[C@H](COP(=O)([O-])O)[C@H](O)[C@@H]2O)c1 [compound 5f, ((2R,3R,4S,5R)-3,4-dihydroxy-5-(3-(octyloxycarbonyl)pyridin-1-ium-1-yl)tetrahydrofuran-2-yl)methyl hydrogen phosphate]
HEK-293 cells; 200 μM
  NAD^+ Level (% versus control): 90 ± 8.7 % versus control
